Source: US9790216B2, “3-substituted cyclopentylamine derivatives” (Merck Patent GmbH, priority 2013, dated 2017)

Biological target: T1, human fatty acid synthase FASN (Homo sapiens, UniProt P49327)
T1 construct: human recombinant full-length fatty acid synthase; made in house; host or cells: SF9 cells
Experiment: Biochemical activity testing of human fatty acid synthase FASN (NADPH fluorescence intensity enzyme assay)
Conditions: human recombinant full-length FASN, inhibition
From the text: • GST=Glutathione-S-transferase • FRET=Fluorescence resonance energy transfer • HTRF®=(homogenous time resolved fluorescence) • HEPES=4-(2-hydroxyethyl)-1-piperazine ethanesulfonic acid buffer • DTT=Dithiothreitol • BSA=bovine serum albumin • CHAPS=detergent; • CHAPS=3-[(3-cholamidopropyl)dimethylammonio]-1-propanesulfonate Biochemical Activity Testing of Human Fatty Acid Synthase FASN
Fatty acid synthase FASN is a multifunctional enzyme with seven catalytic activities thereby synthesising long chain fatty acids especially palmitoyl-CoA in the presence of co-factor NADPH starting from the substrates acetyl-CoA and malonyl-CoA. The reductive synthesis is realized by the oxidation of NADPH to NADP. Since NADPH has a high fluorescence intensity quantum yield compared to NADP with excitation at 340 nm and emission at 460 nm, the reaction can be monitored via the decrease in fluorescence intensity. The biochemical FASN activity testing was performed as 384 well two-time-point kinetic fluorescence intensity assay format in Greiner low volume medium binding 384-well black microtiter plates in a total assay volume of 8 μl and was used for high throughput screen. In each well 3 μl 40 nM human recombinant full-length fatty acid synthase (produced in-house in SF9 cells) were dispensed in the following assay buffer: 50 mM potassium phosphate buffer pH 7.0, 0.005% (w/v) BSA, 2 mM Glutathione, 0.02% Tween-20. Then 2 μl of 200 μM NADPH in assay buffer were added, followed by the addition of the test compounds in 10 dilution concentrations starting with 30 μM (final concentration) to get a final DMSO content of 1% (v/v). The mixture was incubated for at least 15 min at room temperature. After the pre-incubation the enzymatic reaction was started by the addition of 2 μl substrate solution (80 μM acetyl-CoA, 240 μM malonyl-CoA). A first fluorescence intensity measurement (time point one) was performed with an Envision multimode reader (Perkin Elmer LAS Germany GmbH) at excitation wavelength 340 nm (lamp mode) and emission wavelength 460 nm. The reaction was incubated for 30 minutes at room temperature. After this the fluorescence intensity was measured again in the Envision using the same parameters as described above (second time point measurement). The data were analysed by subtracting the first time point measurement value from the second time point measurement value (after the enzymatic reaction). The differences of the emission signals were determined. These reflect directly the conversion rate of NADPH. The full value used was the inhibitor-free reaction. A pharmacological zero value was used like GSK837149A (Sigma-Aldrich) in a final concentration of 5-10 μM. The inhibitory values (IC50) were determined using either the program Symyx Assay Explorer® or Condosseo® from GeneData.

T1 sequence (P49327 whole entry): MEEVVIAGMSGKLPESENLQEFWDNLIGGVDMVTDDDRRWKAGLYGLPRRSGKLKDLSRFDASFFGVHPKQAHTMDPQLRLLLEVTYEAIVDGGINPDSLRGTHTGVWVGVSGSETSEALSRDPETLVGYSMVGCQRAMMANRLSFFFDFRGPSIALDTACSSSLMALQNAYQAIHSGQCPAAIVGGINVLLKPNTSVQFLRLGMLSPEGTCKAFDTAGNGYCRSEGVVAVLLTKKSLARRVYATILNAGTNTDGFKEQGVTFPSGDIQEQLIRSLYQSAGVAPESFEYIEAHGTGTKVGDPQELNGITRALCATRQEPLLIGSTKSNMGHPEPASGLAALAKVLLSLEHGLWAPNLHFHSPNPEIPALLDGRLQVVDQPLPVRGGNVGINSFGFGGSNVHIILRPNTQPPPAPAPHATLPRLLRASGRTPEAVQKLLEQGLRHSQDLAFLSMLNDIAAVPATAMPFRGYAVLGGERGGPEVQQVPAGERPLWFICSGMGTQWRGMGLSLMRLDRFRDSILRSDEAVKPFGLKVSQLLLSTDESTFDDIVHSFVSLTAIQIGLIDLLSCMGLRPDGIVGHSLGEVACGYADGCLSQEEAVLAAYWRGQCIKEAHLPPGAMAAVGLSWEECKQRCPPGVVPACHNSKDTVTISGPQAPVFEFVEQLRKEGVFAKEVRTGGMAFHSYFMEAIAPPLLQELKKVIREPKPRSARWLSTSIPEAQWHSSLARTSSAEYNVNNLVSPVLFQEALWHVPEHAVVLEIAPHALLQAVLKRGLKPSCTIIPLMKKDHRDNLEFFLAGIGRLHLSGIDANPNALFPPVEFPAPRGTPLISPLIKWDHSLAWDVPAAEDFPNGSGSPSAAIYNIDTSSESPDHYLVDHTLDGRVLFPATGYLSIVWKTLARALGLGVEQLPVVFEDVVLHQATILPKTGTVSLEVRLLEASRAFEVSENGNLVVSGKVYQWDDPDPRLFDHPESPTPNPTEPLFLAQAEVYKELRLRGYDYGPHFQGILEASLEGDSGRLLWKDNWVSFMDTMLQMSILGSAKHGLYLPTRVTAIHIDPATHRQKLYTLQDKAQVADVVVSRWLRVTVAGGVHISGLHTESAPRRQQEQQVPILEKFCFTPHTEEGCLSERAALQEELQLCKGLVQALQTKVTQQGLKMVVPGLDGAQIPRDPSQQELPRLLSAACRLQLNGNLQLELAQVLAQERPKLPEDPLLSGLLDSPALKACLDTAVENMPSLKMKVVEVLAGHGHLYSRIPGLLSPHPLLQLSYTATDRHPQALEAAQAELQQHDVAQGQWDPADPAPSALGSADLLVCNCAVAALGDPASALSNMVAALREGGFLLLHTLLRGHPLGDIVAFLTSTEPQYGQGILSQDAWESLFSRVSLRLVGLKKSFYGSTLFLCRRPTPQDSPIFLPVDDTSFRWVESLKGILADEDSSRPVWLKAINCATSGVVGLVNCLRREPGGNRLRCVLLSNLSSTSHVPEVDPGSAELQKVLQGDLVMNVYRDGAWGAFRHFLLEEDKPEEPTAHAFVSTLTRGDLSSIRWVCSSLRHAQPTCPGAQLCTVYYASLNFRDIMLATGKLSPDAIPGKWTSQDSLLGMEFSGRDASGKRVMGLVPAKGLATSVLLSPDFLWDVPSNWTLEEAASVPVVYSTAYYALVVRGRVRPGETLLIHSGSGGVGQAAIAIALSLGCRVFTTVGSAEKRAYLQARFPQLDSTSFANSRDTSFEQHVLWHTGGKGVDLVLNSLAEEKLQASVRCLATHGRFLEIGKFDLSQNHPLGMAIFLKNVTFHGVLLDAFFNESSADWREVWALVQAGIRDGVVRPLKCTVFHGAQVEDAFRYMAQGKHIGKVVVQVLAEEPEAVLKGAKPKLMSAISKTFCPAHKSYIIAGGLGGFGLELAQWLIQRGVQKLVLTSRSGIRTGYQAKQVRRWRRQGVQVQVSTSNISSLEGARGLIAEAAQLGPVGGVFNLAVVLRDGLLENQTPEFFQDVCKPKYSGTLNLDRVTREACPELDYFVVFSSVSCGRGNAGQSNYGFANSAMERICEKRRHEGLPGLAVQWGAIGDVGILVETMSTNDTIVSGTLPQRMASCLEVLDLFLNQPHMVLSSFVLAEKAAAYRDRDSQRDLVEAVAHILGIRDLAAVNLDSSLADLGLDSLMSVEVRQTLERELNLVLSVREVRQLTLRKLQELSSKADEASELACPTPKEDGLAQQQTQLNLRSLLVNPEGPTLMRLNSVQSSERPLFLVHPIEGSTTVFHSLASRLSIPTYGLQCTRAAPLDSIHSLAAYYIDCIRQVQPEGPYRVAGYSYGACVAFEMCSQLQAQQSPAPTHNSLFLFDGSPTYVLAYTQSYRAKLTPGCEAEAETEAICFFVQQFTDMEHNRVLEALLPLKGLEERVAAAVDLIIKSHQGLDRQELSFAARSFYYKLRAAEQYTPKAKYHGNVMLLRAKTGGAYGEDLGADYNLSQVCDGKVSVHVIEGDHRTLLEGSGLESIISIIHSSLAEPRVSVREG

For `CN(C(=O)c1ccc(-c2ccccc2)cc1)[C@@H]1CC[C@H](n2cc(C3CC3)nn2)C1` (racemic) [Compound A29, (rac)-cis-biphenyl-4-carboxylic acid [-3-(4-cyclopropyl-[1,2,3]triazol-1-yl)-cyclopentyl]-methyl-amide], the IC50 was 3 to 50 µM.
